This is an account of results in ChEMBL document CHEMBL4387721, “Proteolysis targeting chimeras (PROTACs) in 'beyond rule-of-five' chemical space: Recent progress and future challenges” (Bioorg Med Chem Lett, 2019).

Holding throughout (type): cell-based
In experiment [1] the target is T1, Protein cereblon/Cyclin-dependent kinase 9 (Homo sapiens, UniProt P50750+Q96SW2). As to the kind of experiment: Protac activity at CRBN/CDK9 in human MOLT4 cells assessed as induction of CDK9 protein degradation after 6 hrs by Western blot analysis relative to control.
Target sequence in this assay (P50750 whole entry, looked up): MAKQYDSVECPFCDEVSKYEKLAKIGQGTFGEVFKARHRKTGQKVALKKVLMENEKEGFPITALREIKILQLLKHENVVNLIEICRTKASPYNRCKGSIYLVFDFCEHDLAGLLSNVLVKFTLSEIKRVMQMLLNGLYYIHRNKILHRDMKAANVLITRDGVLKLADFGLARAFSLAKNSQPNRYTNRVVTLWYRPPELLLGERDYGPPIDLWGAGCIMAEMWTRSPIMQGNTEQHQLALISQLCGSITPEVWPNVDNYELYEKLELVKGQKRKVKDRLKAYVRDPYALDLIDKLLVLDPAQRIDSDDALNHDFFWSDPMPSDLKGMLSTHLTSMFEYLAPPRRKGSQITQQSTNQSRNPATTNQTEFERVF
Target sequence in this assay (Q96SW2 whole entry, looked up): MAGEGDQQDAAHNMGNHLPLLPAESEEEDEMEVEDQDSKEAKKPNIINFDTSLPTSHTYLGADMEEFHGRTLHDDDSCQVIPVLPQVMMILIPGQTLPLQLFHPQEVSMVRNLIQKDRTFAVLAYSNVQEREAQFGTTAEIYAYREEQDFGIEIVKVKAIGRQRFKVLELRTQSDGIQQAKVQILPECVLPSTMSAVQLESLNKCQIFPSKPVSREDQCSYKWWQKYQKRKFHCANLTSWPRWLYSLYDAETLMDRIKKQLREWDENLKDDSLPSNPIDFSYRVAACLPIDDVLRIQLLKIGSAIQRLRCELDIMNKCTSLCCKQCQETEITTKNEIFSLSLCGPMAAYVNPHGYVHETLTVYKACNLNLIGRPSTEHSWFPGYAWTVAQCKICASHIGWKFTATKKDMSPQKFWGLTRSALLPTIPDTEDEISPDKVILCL
In experiment [2] the target is T1, Protein cereblon/Cyclin-dependent kinase 9. In words: Protac activity at CRBN/CDK9 in human MOLT4 cells assessed as induction of CDK9 protein degradation after 6 hrs by Western blot analysis.
Target sequence in this assay (P50750 whole entry): as the sequence (P50750 whole entry, looked up) above
Target sequence in this assay (Q96SW2 whole entry): as the sequence (Q96SW2 whole entry, looked up) above
In experiment [3] the target is T2, Protein cereblon/Tyrosine-protein kinase BTK (Homo sapiens, UniProt Q06187+Q96SW2). As to the kind of experiment: Protac activity at CRBN/BTK in human Ramos cells assessed as induction of BTK protein degradation incubated for 24 hrs by Western blot analysis.
Experiment [4] concerns the target T2, Protein cereblon/Tyrosine-protein kinase BTK. In words: Protac activity at CRBN/BTK in human Ramos cells assessed as induction of BTK protein degradation at 300 nM incubated for 24 hrs by Western blot analysis relative to control.
Target sequence in this assay (Q06187 2-659 limits assumed): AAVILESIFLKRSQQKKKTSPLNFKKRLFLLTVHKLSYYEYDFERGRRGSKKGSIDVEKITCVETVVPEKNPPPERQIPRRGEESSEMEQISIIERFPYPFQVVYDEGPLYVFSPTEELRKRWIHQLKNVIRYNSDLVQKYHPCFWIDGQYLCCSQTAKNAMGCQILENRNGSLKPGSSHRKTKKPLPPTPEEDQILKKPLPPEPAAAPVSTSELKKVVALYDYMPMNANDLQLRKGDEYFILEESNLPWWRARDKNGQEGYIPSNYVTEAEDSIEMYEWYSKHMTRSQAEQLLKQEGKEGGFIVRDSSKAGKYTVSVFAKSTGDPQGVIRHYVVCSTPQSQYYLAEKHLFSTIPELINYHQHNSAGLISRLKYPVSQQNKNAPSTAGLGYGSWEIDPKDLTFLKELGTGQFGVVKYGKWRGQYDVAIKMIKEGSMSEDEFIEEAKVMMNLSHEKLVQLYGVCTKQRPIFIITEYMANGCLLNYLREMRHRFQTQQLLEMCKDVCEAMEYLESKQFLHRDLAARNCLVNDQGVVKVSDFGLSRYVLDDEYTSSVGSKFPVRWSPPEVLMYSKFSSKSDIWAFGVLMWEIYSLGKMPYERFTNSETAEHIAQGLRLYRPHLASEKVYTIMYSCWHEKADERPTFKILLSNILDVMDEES
Target sequence in this assay (Q96SW2 whole entry partner): as the sequence (Q96SW2 whole entry, looked up) above
Experiment [5] has as its target T1, Protein cereblon/Cyclin-dependent kinase 9. In words: Protac activity at CRBN/CDK9 in human HCT116 cells assessed as induction of CDK9 protein degradation at 20 uM after 6 hrs by Western blot analysis relative to control.
Target sequence in this assay (P50750 whole entry, looked up): as the sequence (P50750 whole entry, looked up) above
Target sequence in this assay (Q96SW2 whole entry, looked up): as the sequence (Q96SW2 whole entry, looked up) above
Experiment [6] deals with von Hippel-Lindau disease tumor suppressor/Receptor-interacting serine/threonine-protein kinase 2 (Homo sapiens) (UniProt O43353+P40337). As to the kind of experiment: Protac activity at VHL/RIPK2 in human THP1 cells assessed as induction of RIPK2 protein degradation at 10 nM incubated for 16 hrs by Western blot analysis relative to control.
For experiment [7], the target named is T1, Protein cereblon/Cyclin-dependent kinase 9. In words: Protac activity at CRBN/CDK9 in human HCT116 cells assessed as induction of CDK9 protein degradation after 6 hrs by Western blot analysis.
Target sequence in this assay (P50750 whole entry): as the sequence (P50750 whole entry, looked up) above
Target sequence in this assay (Q96SW2 whole entry): as the sequence (Q96SW2 whole entry, looked up) above
Experiment [8] addresses T3, E3 ubiquitin-protein ligase XIAP/Tyrosine-protein kinase ABL1/Breakpoint cluster region protein (Homo sapiens, UniProt P00519+P98170+P11274). In words: Protac activity at BCR-ABL/XIAP in human K562 cells assessed as induction of ABL protein degradation at 100 nM after 6 hrs by Western blot analysis relative to control.
The target of experiment [9] is T3, E3 ubiquitin-protein ligase XIAP/Tyrosine-protein kinase ABL1/Breakpoint cluster region protein. As to the kind of experiment: Protac activity at BCR-ABL/XIAP in human K562 cells assessed as induction of ABL protein degradation after 6 hrs by Western blot analysis.
Experiment [10] deals with T2, Protein cereblon/Tyrosine-protein kinase BTK. As to the kind of experiment: Protac activity at CRBN/BTK in human NAMALWA cells assessed as induction of BTK protein degradation at 100 nM incubated for 24 hrs by immunoblotting method relative to control.
Target sequence in this assay (Q06187 2-659 limits assumed): as the sequence (Q06187 2-659 limits assumed) above
Target sequence in this assay (Q96SW2 whole entry partner): as the sequence (Q96SW2 whole entry, looked up) above
Experiment [11] addresses von Hippel-Lindau disease tumor suppressor/Bromodomain-containing protein 2 (Homo sapiens, UniProt P25440+P40337). As to the kind of experiment: Protac activity at VHL/BRD2 in human 22Rv1 cells assessed as induction of BRD2 protein degradation incubated for 16 hrs by Western blot analysis.
The target of experiment [12] is von Hippel-Lindau disease tumor suppressor/Bromodomain-containing protein 4 (Homo sapiens, UniProt O60885+P40337). As to the kind of experiment: Protac activity at VHL/BRD4 in human 22Rv1 cells assessed as induction of BRD4 protein degradation incubated for 16 hrs by Western blot analysis relative to control.
Experiment [13] can be described thus: Protac activity at CRBN/FKBP12 F36V mutant (unknown origin) expressed in human 293FT cells assessed as induction of FKBP12 F36V mutant protein degradation incubated for 4 hrs by Western blot analysis.
The species entered for a further experiment is Homo sapiens. As to the kind of experiment: Protac activity at CRBN/FKBP12 F36V mutant (unknown origin) expressed in human 293FT cells assessed as induction of FKBP12 F36V mutant protein degradation incubated for 4 hrs by Western blot analysis relative to control.
The test system of experiment [14] is Protein cereblon/Tyrosine-protein kinase BTK (Homo sapiens), Q06187+Q96SW2 [C481S]. In words: Protac activity at CRBN/BTK C481S mutant in human MCL cells assessed as induction of BTK C481S mutant degradation at 500 nM relative to control.
The target of experiment [15] is T4, Protein cereblon/Tyrosine-protein kinase BTK (Homo sapiens, UniProt Q06187+Q96SW2, C481S). In words: Protac activity at CRBN/BTK C481S mutant in human MM cells assessed as induction of BTK C481S mutant protein degradation.
Experiment [16] concerns the target T4, Protein cereblon/Tyrosine-protein kinase BTK. In words: Protac activity at CRBN/BTK C481S mutant in human MCL cells assessed as induction of BTK C481S mutant degradation.
For experiment [17], the system named is Protein cereblon/Tyrosine-protein kinase BTK (Homo sapiens), Q06187+Q96SW2 [C481S]. As to the kind of experiment: Protac activity at CRBN/BTK C481S mutant in human MM cells assessed as induction of BTK C481S mutant protein degradation at 500 nM relative to control.

SMILES strings stand for the structures.

T4 sequence (Q06187 2-659 C481S limits assumed, stated change not applied): as the sequence (Q06187 2-659 limits assumed) above, with C480S counted along it
T4 sequence (Q96SW2 whole entry, stated change not applied): as the sequence (Q96SW2 whole entry, looked up) above
von Hippel-Lindau disease tumor suppressor/Receptor-interacting serine/threonine-protein kinase 2 (Homo sapiens), sequence (O43353 whole entry, looked up): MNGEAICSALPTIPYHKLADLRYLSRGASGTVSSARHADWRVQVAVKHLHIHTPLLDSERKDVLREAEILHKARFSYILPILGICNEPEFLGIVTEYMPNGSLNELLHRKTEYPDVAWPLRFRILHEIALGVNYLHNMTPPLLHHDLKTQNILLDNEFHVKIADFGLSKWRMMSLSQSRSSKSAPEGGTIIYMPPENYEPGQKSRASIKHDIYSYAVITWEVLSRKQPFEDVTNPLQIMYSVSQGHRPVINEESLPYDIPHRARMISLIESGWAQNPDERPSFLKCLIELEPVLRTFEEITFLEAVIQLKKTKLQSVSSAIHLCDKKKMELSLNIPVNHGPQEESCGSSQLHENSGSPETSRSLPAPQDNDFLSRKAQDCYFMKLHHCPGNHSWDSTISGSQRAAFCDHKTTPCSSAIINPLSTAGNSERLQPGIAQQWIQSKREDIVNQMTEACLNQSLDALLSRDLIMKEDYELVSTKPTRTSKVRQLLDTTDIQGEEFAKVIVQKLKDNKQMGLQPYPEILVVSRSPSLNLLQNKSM
von Hippel-Lindau disease tumor suppressor/Receptor-interacting serine/threonine-protein kinase 2 (Homo sapiens), sequence (P40337 whole entry, looked up): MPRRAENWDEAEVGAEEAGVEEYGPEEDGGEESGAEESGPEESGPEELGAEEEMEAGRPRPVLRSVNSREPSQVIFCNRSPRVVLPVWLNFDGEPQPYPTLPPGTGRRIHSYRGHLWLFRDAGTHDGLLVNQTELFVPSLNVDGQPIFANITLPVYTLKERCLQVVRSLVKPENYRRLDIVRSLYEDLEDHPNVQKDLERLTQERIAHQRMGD

In the case of `CC(C)(C)c1cnc(CSc2cnc(NC(=O)C3CCN(CC(=O)NCCOCCOCCOCCNc4cccc5c4C(=O)N(C4CCC(=O)NC4=O)C5=O)CC3)s2)o1` (stereo not drawn), the Emax in [1] was over 95%. In experiment [2], the half-maximal degradation concentration (DC50) is under 250 nM. Take `NC(=O)c1c(-c2ccc(Oc3ccc(F)cc3F)cc2)nn([C@@H]2CCCN(C(=O)OCCOCCOCCOCCOCCOCCNc3cccc4c3C(=O)N(C3CCC(=O)NC3=O)C4=O)C2)c1N` (stereo partly drawn): in [3], the DC50 was determined as 1.1 nM. For the same compound, the Emax in experiment [4] amounted to 87%. On to `O=C1CCC(N2C(=O)c3cccc(OCCCCCOc4ccc(CC(=O)Nc5cc(C6CCC6)[nH]n5)cc4)c3C2=O)C(=O)N1` (stereo not drawn), for which the Emax in experiment [5] is over 65%. Regarding `Cc1ncsc1-c1ccc(CNC(=O)[C@@H]2C[C@@H](O)CN2C(=O)[C@@H](NC(=O)COCCOCCOCCOCCOc2cc3nccc(Nc4ccc5scnc5c4)c3cc2S(=O)(=O)C(C)(C)C)C(C)(C)C)cc1`, in experiment [6], the Emax is over 95%. On to `O=C1CCC(N2C(=O)c3cccc(OCCCCCOc4ccc(CC(=O)Nc5cc(C6CCC6)n[nH]5)cc4)c3C2=O)C(=O)N1` (stereo not drawn), for which the DC50 in [7] turned out to be 10000 nM. Consider `CN[C@@H](C)C(=O)N[C@H](C(=O)N1CCC[C@H]1c1nc(C(=O)c2cccc(OCCOCCOCCOCC(=O)N3CCN(c4cc(Nc5ncc(C(=O)Nc6c(C)cccc6Cl)s5)nc(C)n4)CC3)c2)cs1)C1CCCCC1`, for which, in [8], the Emax was over 90%. In addition, in experiment [9], the DC50 is 3 to 10 nM. In the case of `Nc1ncnc2c1c(-c1ccc(Oc3ccccc3)cc1)nn2C1CCN(CCOCCOCC(=O)Nc2ccc3c(c2)C(=O)N(C2CCC(=O)NC2=O)C3=O)CC1` (stereo not drawn), in experiment [10], the Emax was over 99%.

For `Cc1ncsc1-c1ccc([C@H](C)NC(=O)[C@@H]2C[C@@H](O)CN2C(=O)[C@@H](NC(=O)COCCCOCCNC(=O)C[C@@H]2N=C(c3ccc(Cl)cc3)c3c(sc(C)c3C)-n3c(C)nnc32)C(C)(C)C)cc1`, in experiment [11], the DC50 is under 5 nM. Further, the Emax in experiment [12] is over 99%. `CC[C@H](C(=O)N1CCCC[C@H]1C(=O)O[C@H](CCc1ccc(OC)c(OC)c1)c1ccccc1OCC(=O)NCCCCCCOc1cccc2c1C(=O)N(C1CCC(=O)NC1=O)C2=O)c1cc(OC)c(OC)c(OC)c1` (stereo partly drawn): in [13], the DC50 was under 100 nM. For the same compound, the Emax in the experiment listed under Homo sapiens stood at 82%.

In the case of `Nc1ncnc2c1c(-c1ccc(Oc3ccccc3)cc1)nn2[C@@H]1CCCN(C(=O)c2cn(CCOCCOCCOCCNc3cccc4c3C(=O)N(C3CCC(=O)NC3=O)C4=O)nn2)C1` (stereo partly drawn), the Emax in experiment [14] and in experiment [17] was over 94% each time. Besides, the DC50 in [15] was under 12 nM; in experiment [16], over 6 nM.
